Experimental data from publication PMC10816875, “Synthesis, Characterization, Cytotoxicity, Cellular Imaging, Molecular Docking, and ADMET Studies of Piperazine-Linked 1,8-Naphthalimide-Arylsulfonyl Derivatives” (International Journal of Molecular Sciences, 2024).
Read-outs that look alike come from different tables or passages of the source.

Columns and labels:
Type in all cases: cell-based
[1] = CCK-8 viability of 3T3 fibroblast cells; details: mouse, read-out: % Cell viability against 3T3 fibroblast cell line
Method: (§1) For the anticancer studies, we established a stable cell culture for mouse breast cancer cell line 4T1 (ATCC: CRL-2539) cultured in the medium composition RPMI-1640 (Gibco; Grand Island, New York, USA), 10% fetal bovine serum (Gibco, Mexico), 4.5 g/L glucose, 1.5 g/L NaHCO3, 1 mM sodium pyruvate (Gibco; Grand Island, New York, NY, USA), and 1% penicillin–streptomycin (10,000 U/mL). We observed typical cell morphology after the IV passage of cells unfrozen from liquid nitrogen. Then, the cells were used for the subsequent anticancer experiment. A non-cancerous fibroblast cell line (3T3/NIH, ATCC: CRL-1658) was employed for the fluorescence imaging assay. The cells were cultured in 90% Dulbecco’s modified Eagle’s medium with 4 mM L-glutamine, 2 mM sodium pyruvate, 1% non-essential amino acid, 1% penicillin/streptomycin/amphotericin, and 10% fetal bovine serum.
(§2) A total of 5.0 × 10^4 of 3T3 cells per well in a 96-well plate were co-cultured with the 1.0 μg/mL of SA samples for 72 h. The viability of the 3T3 cells was assayed by using 10% CCK-8 reagent for 60 min to determine the toxicity of the SA samples. Afterwards, the cells were fixed with glutaraldehyde, followed by staining with 0.1 μg/mL of 4′,6-diamidino-2-phenylindole (DAPI) for the imaging of the nuclei. An inverted fluorescent optical microscope (Nikon, Eclipse Ti-S, Japan) was utilized. The fluorescent light source was Nikon Intensilight C-HGFI, and two fluorescent filter cubes (Ex = 340–380 nm, Em = 435–485 nm, corresponding to DAPI, and Ex = 465–495 nm, Em = 512–558 nm, corresponding to SA samples) were used to observe the distribution of SA samples in the cytoplasm. A scientific-grade CCD (Dhyana, model: 400 BSI, Tucsen, Fuzhou, China) was used to record the images. The magnification of the OM was 200×. The original fluorescent images were recorded in greyscale. ImageJ software (an open-source software, NIH Image, version 1.54f, Bethesda, MD, USA) was employed to merge and convert two fluorescent images into visible colors, e.g., blue for cell nuclei and green for SA1–SA7 samples.

[2] = tested on: mouse breast cancer 4T1 cell line; test: MTT cytotoxicity assay on 4T1 breast cancer cells; details: 24 h
Method: as §1
A cellular viability assay was employed for the cytotoxicity of SA samples. […] A cell viability reagent (MTT, Sigma-Aldrich, St Louis, MI, USA) containing yellow tetrazolium salt (3-(4,5-dimethylthiazol-2-yl)-2,5-diphenyltetrazolium bromide) can be converted to purple formazan salt to indicate the cell viability. The 4T1 breast cancer cells were cultured at a density of 5.0 × 10^3 cells per well in 96-well plates. The cells were treated with SA samples for 24 h. The control groups were abbreviated as Cont (100% culture medium), representing normal cell culture; PC (20% DMSO and 80% culture medium), representing toxic condition; and NC (0.1% DMSO and 99.9%), representing minimum toxic condition. MTT reagent was added to 96-well plates to measure the cytotoxic effect of the SA compounds on 4T1 cells.

[3] = tested on: 3T3 fibroblast cell line; test: CCK-8 viability of 3T3 fibroblast cells; details: 1 μg/mL, 72 h
Method: as §1, §2

Question: Which viability at 72 h, 1 μg/mL [1] does the source give for `O=C1c2cccc3cccc(c23)C(=O)N1CCN1CCN(S(=O)(=O)c2ccc(Cl)s2)CC1` [SA4, 2-(2-(4-((5-Chlorothiophen-2-yl)sulfonyl)piperazin-1-yl)ethyl)-1H-benzo[de]isoquinoline-1,3(2H)-dione] here?
Answer: 82 to 95%

Question: For `O=C1c2cccc3cccc(c23)C(=O)N1CCN1CCN(S(=O)(=O)c2ccccc2[N+](=O)[O-])CC1` [SA1, 2-(2-(4-((2-Nitrophenyl)sulfonyl)piperazin-1-yl)ethyl)-1H-benzo[de]isoquinoline-1,3 (2H)-dione], which viability at 72 h, 1 μg/mL ([1]; 3T3/NIH fibroblast cells (non-cancerous)) is on record?
Answer: 82 to 95%

Question: For `O=C1c2cccc3cccc(c23)C(=O)N1CCN1CCN(S(=O)(=O)c2ccc3ccccc3c2)CC1` [SA2, 2-(2-(4-(Naphthalen-2-ylsulfonyl)piperazin-1-yl)ethyl)-1H-benzo[de]isoquinoline-1,3 (2H)-dione], which viability at 72 h, 1 μg/mL [1] is on record?
Answer: 82 to 95%

Question: Which “cytotoxicity against 4T1 breast cancer cells (in words)” value [2] does the source give for `O=C1c2cccc3cccc(c23)C(=O)N1CCN1CCN(S(=O)(=O)c2cccs2)CC1` [SA5, 2-(2-(4-(Thiophen-2-ylsulfonyl)piperazin-1-yl)ethyl)-1H-benzo[de]isoquinoline-1,3(2H)-dione] here?
Answer: most potent (cytotoxic) compound

Question: What about the viability at 0.7 µM ([2]; Mus musculus, 4T1, 0.7 μM) of the same compound?
Answer: < 80%

Question: And the viability at 72 h, 1 μg/mL [1]?
Answer: 82 to 95%

Question: Which viability at 72 h, 1 μg/mL [1] does the source give for `N#Cc1ccc(S(=O)(=O)N2CCN(CCN3C(=O)c4cccc5cccc(c45)C3=O)CC2)cc1` [SA7, 4-((4-(2-(1,3-Dioxo-1H-benzo[de]isoquinolin-2(3H)-yl)ethyl)piperazin-1-yl)sulfonyl)benzonitrile] here?
Answer: 82 to 95%

Question: Which “cytotoxicity against 4T1 breast cancer cells (in words)” value [2] does the source give for `O=C1c2cccc3cccc(c23)C(=O)N1CCN1CCN(S(=O)(=O)c2ccc([N+](=O)[O-])cc2)CC1` [SA3, 2-(2-(4-((4-Nitrophenyl)sulfonyl)piperazin-1-yl)ethyl)-1H-benzo[de]isoquinoline-1,3 (2H)-dione] here?
Answer: low toxicity

Question: What about the viability at 72 h, 1 μg/mL [1] of the same compound?
Answer: 82 to 95%

Question: What about the “% Cell viability against 3T3 fibroblast cell line” value [3] of the same compound?
Answer: relatively high viability

Question: What does the source list for `O=C1c2cccc3cccc(c23)C(=O)N1CCN1CCN(S(=O)(=O)c2cccnc2)CC1` [SA6, 2-(2-(4-(Pyridin-3-ylsulfonyl)piperazin-1-yl)ethyl)-1H-benzo[de]isoquinoline-1,3(2H)-dione]?
Answer: cytotoxicity against 4T1 breast cancer cells (in words) [2]: good anticancer activity; viability at 72 h, 1 μg/mL [1]: 82 to 95%
